# Measured values taken from patent US9493466B2, “Treatment of cancer with TOR kinase inhibitors” (Signal Pharmaceuticals, LLC, priority 2011, dated 2016).
# What was measured:
# Test in all cases: Growth inhibition assay for breast cancer
# Type in all cases: cell-based
# [1] = tested on: MDA-MB-175-VII; conditions: MDA-MB-175-VII (Luminal, ER+), 96 hours
# Source text: (§1) Growth Inhibition Assay for Breast Cancer (BC) (Compound 1). All breast cancer cell lines were maintained and tested in appropriate culture media. The seeding density for each cell line was optimized to ensure assay linearity in 384-well plates.
# (§2) Increasing concentrations of Compound 1 were spotted via an acoustic dispenser (EDC ATS-100) into an empty 384-well plate. Compound 1 was spotted in a 10-point serial dilution fashion (3-fold dilution) in duplicate within the plate. The dimethyl sulfoxide (DMSO) concentration was kept constant for a final assay concentration of 0.1% DMSO. Plates were replicated for use against different cell lines and testing periods. After compound plate replication, all plates were sealed (Agilent ThermoLoc) and stored at −20° C. for up to 1 month. When ready for testing, plates were removed from the freezer, thawed, and unsealed just prior to the addition of the test cell.
# (§3) Prior to testing, cells were grown and expanded in culture flasks to provide sufficient amounts of starting material. Cells were then diluted to their desired densities and added directly to the Compound 1-spotted 384-well plates. Cells were allowed to grow for 96 hours at 37° C./5% CO2. At the time of setup (t0), initial cell number was assessed via a viability assay (Cell Titer-Glo) and read for luminescence. After 96 hours, cell viability of Compound 1-treated cells was assessed via Cell Titer-Glo and read for luminescence.
# (§4) Cell lines were assayed for growth inhibition by Compound 1 for at least two independent tests. All data was normalized and represented as a percentage of the DMSO-treated control cells. […] The potency of Compound 1 in different subtypes of breast cancer cell lines is shown in FIG. 7A, while the correlation of Compound 1 sensitivity to ER, HER, PIK3CA, and TP53 status is shown in FIG. 7B.
# [2] = tested on: HCC1937; conditions: HCC1937 (Basal, TN), 96 hours
# Source text: as §1, §2, §3, §4
# [3] = tested on: HCC1143; conditions: HCC1143 (Basal, TN), 96 hours
# Source text: as §1, §2, §3, §4
# [4] = tested on: MDA-MB-453; conditions: MDA-MB-453 (Luminal, Her2+), 96 hours
# Source text: as §1, §2, §3, §4
# [5] = tested on: MDA-MB-157; conditions: MDA-MB-157 (Basal, TN), 96 hours
# Source text: as §1, §2, §3, §4
# [6] = tested on: CAL-85-1; conditions: CAL-85-1 (Basal, TN), 96 hours
# Source text: as §1, §2, §3, §4
# [7] = tested on: BT-483; conditions: BT-483 (Luminal, ER+), 96 hours
# Source text: as §1, §2, §3, §4
# [8] = tested on: MCF10A; conditions: MCF10A (Basal, TN), 96 hours
# Source text: as §1, §2, §3, §4
# [9] = tested on: AU565; conditions: AU565 (Luminal, Her2+), 96 hours
# Source text: as §1, §2, §3, §4
# [10] = tested on: DU4475; conditions: DU4475 (Basal, TN), 96 hours
# Source text: as §1, §2, §3, §4
# [11] = tested on: UACC-812; conditions: UACC-812 (Luminal, Her2+), 96 hours
# Source text: as §1, §2, §3, §4
# [12] = tested on: ZR-75-1; conditions: ZR-75-1 (Luminal, ER+), 96 hours
# Source text: as §1, §2, §3, §4
# [13] = tested on: NCI/ADR-RES; conditions: NCI/ADR-RES (Basal, TN), 96 hours
# Source text: as §1, §2, §3, §4
# [14] = tested on: HCC1569; conditions: HCC1569 (Basal, Her2+), 96 hours
# Source text: as §1, §2, §3, §4
# [15] = tested on: HCC38; conditions: HCC38 (Basal, TN), 96 hours
# Source text: as §1, §2, §3, §4
# [16] = tested on: MDA-MB-436; conditions: MDA-MB-436 (Basal, TN), 96 hours
# Source text: as §1, §2, §3, §4
# [17] = tested on: EFM-19; conditions: EFM-19 (Luminal, ER+), 96 hours
# Source text: as §1, §2, §3, §4
# [18] = tested on: EFM-192A; conditions: EFM-192A (Luminal, Her2+), 96 hours
# Source text: as §1, §2, §3, §4
# [19] = tested on: MCF12A; conditions: MCF12A (Basal, TN), 96 hours
# Source text: as §1, §2, §3, §4
# [20] = tested on: HCC1500; conditions: HCC1500 (Luminal, ER+), 96 hours
# Source text: as §1, §2, §3, §4
# [21] = tested on: ZR-75-30; conditions: ZR-75-30 (Luminal, Her2+), 96 hours
# Source text: as §1, §2, §3, §4
# [22] = tested on: HS578T; conditions: HS578T (Basal, TN), 96 hours
# Source text: as §1, §2, §3, §4
# [23] = tested on: BT-474; conditions: BT-474 (Luminal, Her2+), 96 hours
# Source text: as §1, §2, §3, §4
# [24] = tested on: BT-20; conditions: BT-20 (Basal, TN), 96 hours
# Source text: as §1, §2, §3, §4
# [25] = tested on: MDA-MB-435; conditions: MDA-MB-435 (Basal, TN), 96 hours
# Source text: as §1, §2, §3, §4
# [26] = tested on: MDA-MB-134-VI; conditions: MDA-MB-134-VI (Luminal, ER+), 96 hours
# Source text: as §1, §2, §3, §4
# [27] = tested on: BT-549; conditions: BT-549 (Basal, TN), 96 hours
# Source text: as §1, §2, §3, §4
# [28] = tested on: T47D; conditions: T47D (Luminal, ER+), 96 hours
# Source text: as §1, §2, §3, §4
# [29] = tested on: CAL-120; conditions: CAL-120 (Basal, TN), 96 hours
# Source text: as §1, §2, §3, §4
# [30] = tested on: HCC1187; conditions: HCC1187 (Basal, TN), 96 hours
# Source text: as §1, §2, §3, §4
# [31] = tested on: MDA-MB-468; conditions: MDA-MB-468 (Basal, TN), 96 hours
# Source text: as §1, §2, §3, §4
structure (smiles),measurement,setting,value
"CO[C@H]1CC[C@H](N2C(=O)CNc3ncc(-c4ccc(C(C)(C)O)nc4)nc32)CC1 [Compound 1, 7-(6-(2-hydroxypropan-2-yl)pyridin-3-yl)-1-((1r,4r)-4-methoxycyclohexyl)-3,4-dihydropyrazino-[2,3-b]pyrazin-2(1H)-one]",GI50,[1],40.8 nM
same,GI50,[2],697 nM
same,GI50,[3],343 nM
same,GI50,[4],143 nM
same,GI50,[5],4340 nM
same,GI50,[6],253 nM
same,GI50,[7],21.7 nM
same,GI50,[8],147 nM
same,GI50,[9],213 nM
same,GI50,[10],1240 nM
same,GI50,[11],47.8 nM
same,GI50,[12],32.1 nM
same,GI50,[13],944 nM
same,GI50,[14],356 nM
same,GI50,[15],2950 nM
same,GI50,[16],2990 nM
same,GI50,[17],57.2 nM
same,GI50,[18],192 nM
same,GI50,[19],44.4 nM
same,GI50,[20],24.8 nM
same,GI50,[21],63.4 nM
same,GI50,[22],343 nM
same,GI50,[23],226 nM
same,GI50,[24],330 nM
same,GI50,[25],222 nM
same,GI50,[26],101 nM
same,GI50,[27],149 nM
same,GI50,[28],55.3 nM
same,GI50,[29],700 nM
same,GI50,[30],567 nM
same,GI50,[31],1860 nM
